Assay results: ChEMBL document CHEMBL3991601, “The target landscape of clinical kinase drugs” (Science, 2017)
Counter-ions that a name gives are not always drawn. Calls of active or inactive are those of the source.

Legend:
[1] = biological target: Chromodomain-helicase-DNA-binding protein 4 (Homo sapiens, UniProt Q14839)
[2] = biological target: Ribosomal protein S6 kinase alpha-5 (Homo sapiens, UniProt O75582)
[3] = biological target: Guanine nucleotide-binding protein G(i) subunit alpha-2 (Homo sapiens, UniProt P04899)
Guanine nucleotide-binding protein G(i) subunit alpha-2, sequence (P04899 whole entry): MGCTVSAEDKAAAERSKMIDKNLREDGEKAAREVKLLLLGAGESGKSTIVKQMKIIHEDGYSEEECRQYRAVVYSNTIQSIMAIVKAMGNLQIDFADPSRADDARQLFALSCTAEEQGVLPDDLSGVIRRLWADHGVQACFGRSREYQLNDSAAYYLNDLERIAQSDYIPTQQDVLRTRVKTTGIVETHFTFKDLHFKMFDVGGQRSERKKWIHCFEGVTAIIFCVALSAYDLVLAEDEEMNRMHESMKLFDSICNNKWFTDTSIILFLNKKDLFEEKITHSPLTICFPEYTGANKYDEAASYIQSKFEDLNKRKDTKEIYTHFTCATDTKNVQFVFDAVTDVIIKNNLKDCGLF

[4] = biological target: GTP-binding nuclear protein Ran (Homo sapiens, UniProt P62826)
[5] = biological target: T1, Serine/threonine-protein kinase D3 (Homo sapiens, UniProt O94806)
T1 sequence (O94806 whole entry): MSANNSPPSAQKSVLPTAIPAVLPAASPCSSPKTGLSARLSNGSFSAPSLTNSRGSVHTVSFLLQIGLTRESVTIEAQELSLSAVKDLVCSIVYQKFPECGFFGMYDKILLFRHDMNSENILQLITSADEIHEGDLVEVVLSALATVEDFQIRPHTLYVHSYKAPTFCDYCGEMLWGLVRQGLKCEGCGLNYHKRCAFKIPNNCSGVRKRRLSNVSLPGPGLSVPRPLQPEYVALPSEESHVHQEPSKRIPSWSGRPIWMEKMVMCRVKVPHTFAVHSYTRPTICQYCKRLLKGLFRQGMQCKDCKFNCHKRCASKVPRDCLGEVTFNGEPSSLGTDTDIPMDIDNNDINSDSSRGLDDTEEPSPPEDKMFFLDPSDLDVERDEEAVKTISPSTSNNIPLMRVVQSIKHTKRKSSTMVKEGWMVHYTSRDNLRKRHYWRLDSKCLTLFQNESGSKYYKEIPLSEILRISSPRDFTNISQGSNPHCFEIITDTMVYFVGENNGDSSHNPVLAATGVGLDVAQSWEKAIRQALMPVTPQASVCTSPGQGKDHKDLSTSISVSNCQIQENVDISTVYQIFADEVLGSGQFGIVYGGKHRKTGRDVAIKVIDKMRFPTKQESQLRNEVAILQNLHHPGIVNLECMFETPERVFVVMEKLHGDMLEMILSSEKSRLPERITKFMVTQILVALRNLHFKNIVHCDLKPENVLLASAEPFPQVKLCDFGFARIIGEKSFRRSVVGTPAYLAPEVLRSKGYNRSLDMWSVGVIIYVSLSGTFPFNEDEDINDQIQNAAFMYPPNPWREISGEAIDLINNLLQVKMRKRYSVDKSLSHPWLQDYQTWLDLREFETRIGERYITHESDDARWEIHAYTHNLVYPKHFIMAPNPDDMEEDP

[6] = biological target: T2, Acyl-CoA dehydrogenase family member 10 (Homo sapiens, UniProt Q6JQN1)
T2 sequence (Q6JQN1 whole entry): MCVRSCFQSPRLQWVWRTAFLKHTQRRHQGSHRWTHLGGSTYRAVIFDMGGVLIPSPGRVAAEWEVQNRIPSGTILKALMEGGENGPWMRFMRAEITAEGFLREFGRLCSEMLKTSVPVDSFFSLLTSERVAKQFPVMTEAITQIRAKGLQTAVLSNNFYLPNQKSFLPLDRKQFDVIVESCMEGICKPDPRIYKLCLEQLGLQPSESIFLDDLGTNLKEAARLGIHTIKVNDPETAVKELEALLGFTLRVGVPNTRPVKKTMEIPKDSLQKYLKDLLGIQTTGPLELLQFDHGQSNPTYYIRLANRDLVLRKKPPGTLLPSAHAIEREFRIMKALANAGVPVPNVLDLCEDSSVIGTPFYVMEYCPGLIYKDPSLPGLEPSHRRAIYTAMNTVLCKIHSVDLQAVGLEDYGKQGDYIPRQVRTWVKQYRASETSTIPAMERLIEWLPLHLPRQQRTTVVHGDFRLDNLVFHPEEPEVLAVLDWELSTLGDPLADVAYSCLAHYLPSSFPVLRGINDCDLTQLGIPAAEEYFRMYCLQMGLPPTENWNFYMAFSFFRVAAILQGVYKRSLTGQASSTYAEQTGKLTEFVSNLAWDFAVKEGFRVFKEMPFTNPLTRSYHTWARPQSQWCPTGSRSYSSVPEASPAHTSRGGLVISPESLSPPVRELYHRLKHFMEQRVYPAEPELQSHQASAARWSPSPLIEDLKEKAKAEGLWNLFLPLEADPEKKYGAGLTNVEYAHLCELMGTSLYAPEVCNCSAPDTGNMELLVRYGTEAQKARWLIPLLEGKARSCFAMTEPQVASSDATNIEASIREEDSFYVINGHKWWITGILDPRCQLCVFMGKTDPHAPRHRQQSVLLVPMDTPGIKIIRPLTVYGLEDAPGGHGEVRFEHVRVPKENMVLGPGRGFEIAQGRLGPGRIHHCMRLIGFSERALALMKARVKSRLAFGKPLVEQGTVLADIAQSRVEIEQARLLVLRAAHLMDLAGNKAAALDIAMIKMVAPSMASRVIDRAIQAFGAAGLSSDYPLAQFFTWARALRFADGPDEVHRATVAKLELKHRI

[7] = biological target: Tyrosine-protein kinase JAK1 (Homo sapiens, UniProt P23458)
Tyrosine-protein kinase JAK1, sequence (P23458 whole entry): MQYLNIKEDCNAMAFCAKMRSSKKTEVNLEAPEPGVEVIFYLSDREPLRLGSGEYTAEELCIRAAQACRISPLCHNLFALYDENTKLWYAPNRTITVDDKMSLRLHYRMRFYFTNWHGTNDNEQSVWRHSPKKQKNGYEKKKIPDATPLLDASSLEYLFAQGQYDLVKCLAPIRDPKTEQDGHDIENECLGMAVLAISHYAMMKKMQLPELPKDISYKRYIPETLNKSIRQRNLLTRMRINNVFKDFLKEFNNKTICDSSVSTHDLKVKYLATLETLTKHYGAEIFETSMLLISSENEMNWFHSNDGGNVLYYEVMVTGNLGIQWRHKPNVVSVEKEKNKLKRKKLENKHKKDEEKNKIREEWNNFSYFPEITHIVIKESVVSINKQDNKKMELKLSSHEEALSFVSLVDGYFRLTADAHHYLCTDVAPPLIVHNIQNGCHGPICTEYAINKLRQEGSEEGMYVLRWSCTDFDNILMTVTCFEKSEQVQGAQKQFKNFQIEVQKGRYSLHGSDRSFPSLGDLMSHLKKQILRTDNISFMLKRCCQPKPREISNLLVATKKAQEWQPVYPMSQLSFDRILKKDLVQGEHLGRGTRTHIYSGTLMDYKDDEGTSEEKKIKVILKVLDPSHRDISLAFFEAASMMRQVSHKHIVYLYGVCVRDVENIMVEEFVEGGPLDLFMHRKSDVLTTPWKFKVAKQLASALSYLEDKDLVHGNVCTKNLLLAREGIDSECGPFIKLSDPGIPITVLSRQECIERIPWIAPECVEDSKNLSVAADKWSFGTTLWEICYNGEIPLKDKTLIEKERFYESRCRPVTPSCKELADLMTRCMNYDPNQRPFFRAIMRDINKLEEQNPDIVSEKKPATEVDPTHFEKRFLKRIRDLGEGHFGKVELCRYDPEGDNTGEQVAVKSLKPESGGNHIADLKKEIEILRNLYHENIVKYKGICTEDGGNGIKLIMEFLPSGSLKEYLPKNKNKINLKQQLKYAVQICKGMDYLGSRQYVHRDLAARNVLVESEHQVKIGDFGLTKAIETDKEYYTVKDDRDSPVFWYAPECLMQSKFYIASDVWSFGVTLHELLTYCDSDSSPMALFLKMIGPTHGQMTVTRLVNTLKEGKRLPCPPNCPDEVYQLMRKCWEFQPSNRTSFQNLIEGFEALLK
Further: in the data inactive means no Kd found up to 30 µM.

Chromodomain-helicase-DNA-binding protein 4, sequence (Q14839 whole entry): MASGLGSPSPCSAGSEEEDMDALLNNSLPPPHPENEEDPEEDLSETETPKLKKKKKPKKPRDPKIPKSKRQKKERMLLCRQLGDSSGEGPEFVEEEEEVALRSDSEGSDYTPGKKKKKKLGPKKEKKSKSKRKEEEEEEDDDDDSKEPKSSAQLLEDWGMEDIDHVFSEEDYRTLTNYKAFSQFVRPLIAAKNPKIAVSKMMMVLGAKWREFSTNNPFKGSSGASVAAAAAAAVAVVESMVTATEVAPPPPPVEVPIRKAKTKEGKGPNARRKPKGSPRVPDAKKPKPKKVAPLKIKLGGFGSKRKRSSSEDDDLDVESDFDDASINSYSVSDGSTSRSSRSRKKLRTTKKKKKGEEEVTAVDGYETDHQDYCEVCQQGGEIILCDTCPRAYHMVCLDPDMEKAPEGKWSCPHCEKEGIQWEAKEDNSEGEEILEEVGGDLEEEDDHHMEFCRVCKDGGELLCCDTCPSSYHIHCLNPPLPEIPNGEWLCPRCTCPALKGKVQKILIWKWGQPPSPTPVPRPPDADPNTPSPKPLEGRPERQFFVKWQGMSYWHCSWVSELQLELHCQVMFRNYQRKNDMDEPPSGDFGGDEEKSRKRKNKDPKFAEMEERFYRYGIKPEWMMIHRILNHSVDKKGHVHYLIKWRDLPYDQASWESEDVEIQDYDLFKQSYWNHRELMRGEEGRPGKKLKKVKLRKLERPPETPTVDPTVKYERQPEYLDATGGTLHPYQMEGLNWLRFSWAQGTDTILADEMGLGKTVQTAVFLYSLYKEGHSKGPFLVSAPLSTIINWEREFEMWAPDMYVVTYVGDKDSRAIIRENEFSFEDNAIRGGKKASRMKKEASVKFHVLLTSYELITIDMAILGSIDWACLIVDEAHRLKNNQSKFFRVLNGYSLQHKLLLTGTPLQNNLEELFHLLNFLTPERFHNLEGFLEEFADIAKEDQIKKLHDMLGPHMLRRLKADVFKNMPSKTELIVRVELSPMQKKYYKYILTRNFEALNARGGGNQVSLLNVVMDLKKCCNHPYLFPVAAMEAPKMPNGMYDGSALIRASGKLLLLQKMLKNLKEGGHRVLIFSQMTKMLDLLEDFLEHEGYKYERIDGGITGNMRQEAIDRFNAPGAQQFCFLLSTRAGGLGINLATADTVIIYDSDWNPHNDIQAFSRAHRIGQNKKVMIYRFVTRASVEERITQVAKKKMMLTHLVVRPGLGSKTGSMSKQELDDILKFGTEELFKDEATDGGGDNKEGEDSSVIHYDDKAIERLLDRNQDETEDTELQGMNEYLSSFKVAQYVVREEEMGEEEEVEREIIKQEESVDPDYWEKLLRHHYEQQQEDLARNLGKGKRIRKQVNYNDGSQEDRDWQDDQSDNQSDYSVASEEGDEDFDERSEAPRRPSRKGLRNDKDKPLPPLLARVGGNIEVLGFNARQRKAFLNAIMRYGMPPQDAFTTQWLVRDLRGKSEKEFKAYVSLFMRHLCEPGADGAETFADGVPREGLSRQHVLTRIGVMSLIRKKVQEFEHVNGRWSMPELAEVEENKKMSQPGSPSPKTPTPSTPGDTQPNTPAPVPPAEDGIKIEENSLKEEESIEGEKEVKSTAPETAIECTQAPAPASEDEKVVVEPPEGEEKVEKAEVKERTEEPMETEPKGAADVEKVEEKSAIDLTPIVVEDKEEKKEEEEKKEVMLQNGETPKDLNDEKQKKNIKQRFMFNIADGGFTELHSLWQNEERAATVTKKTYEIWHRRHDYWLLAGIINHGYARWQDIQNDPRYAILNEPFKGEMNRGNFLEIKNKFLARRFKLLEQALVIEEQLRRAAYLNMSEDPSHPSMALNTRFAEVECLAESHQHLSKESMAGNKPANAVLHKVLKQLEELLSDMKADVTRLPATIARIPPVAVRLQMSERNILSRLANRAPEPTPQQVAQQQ
Ribosomal protein S6 kinase alpha-5, sequence (O75582 whole entry): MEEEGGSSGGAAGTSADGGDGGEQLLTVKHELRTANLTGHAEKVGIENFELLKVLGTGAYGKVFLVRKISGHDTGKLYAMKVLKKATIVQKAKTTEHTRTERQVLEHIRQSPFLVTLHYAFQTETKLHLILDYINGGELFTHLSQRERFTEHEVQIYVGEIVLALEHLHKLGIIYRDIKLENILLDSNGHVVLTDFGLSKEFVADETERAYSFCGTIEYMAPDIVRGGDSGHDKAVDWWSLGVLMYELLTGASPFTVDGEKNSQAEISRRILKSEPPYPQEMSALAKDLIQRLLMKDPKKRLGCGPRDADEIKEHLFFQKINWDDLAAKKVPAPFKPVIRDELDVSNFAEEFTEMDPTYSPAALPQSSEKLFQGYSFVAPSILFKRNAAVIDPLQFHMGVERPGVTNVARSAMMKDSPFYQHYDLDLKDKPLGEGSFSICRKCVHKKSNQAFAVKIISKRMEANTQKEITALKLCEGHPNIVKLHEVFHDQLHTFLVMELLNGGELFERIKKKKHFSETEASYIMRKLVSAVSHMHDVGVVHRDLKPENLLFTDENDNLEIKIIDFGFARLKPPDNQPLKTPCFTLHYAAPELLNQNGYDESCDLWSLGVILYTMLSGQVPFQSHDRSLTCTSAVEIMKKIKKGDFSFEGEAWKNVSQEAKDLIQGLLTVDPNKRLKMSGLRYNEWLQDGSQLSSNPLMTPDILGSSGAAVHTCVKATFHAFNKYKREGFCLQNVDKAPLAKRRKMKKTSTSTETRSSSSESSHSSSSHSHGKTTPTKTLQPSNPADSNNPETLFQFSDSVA

| Kd [1] | Kd [2] | Kd [3] | Kd [4] | Kd [5] | Kd [6] | Kd [7] | Structure (SMILES) |
| --- | --- | --- | --- | --- | --- | --- | --- |
| > 30 µM (inactive) | > 30 µM (inactive) | > 30 µM (inactive) | > 30 µM (inactive) | > 30 µM (inactive) | > 30 µM (inactive) | > 30 µM (inactive) | Cc1nc(NC(=O)N2CCC[C@H]2C(N)=O)sc1-c1ccnc(C(C)(C)C(F)(F)F)c1 [ALPELISIB] |
| > 30 µM (inactive) | 2.15 µM (active) | > 30 µM (inactive) | > 30 µM (inactive) | 1.91 µM (active) | > 30 µM (inactive) | > 30 µM (inactive) | Cc1csc(-c2nnc(Nc3ccc(Oc4ncccc4-c4ccnc(N)n4)cc3)c3ccccc23)c1 [AMG-900] |
| > 30 µM (inactive) | > 30 µM (inactive) | > 30 µM (inactive) | > 30 µM (inactive) | > 30 µM (inactive) | > 30 µM (inactive) | > 30 µM (inactive) | C=CC(=O)Nc1cc2c(Nc3ccc(F)c(Cl)c3)ncnc2cc1C#CC(C)(C)N1CCN(C)CC1 [AV-412 FREE BASE] |
| > 30 µM (inactive) | > 30 µM (inactive) | > 30 µM (inactive) | > 30 µM (inactive) | > 30 µM (inactive) | > 30 µM (inactive) | > 30 µM (inactive) | Cn1cnc2c(F)c(Nc3ccc(Br)cc3F)c(C(=O)NOCCO)cc21 [BINIMETINIB] |
| > 30 µM (inactive) | > 30 µM (inactive) | > 30 µM (inactive) | > 30 µM (inactive) | > 30 µM (inactive) | > 30 µM (inactive) | > 30 µM (inactive) | COc1cc2ncnc(Oc3cccc(NC(=O)Nc4cc(C(C)(C)C(F)(F)F)on4)c3)c2cc1OC [CEP-32496] |
| > 30 µM (inactive) | > 30 µM (inactive) | > 30 µM (inactive) | > 30 µM (inactive) | > 30 µM (inactive) | > 30 µM (inactive) | > 30 µM (inactive) | Cc1cc(Nc2ncc(Cl)c(Nc3ccccc3S(=O)(=O)C(C)C)n2)c(OC(C)C)cc1C1CCNCC1 [CERITINIB] |
| > 30 µM (inactive) | > 30 µM (inactive) | > 30 µM (inactive) | > 30 µM (inactive) | > 30 µM (inactive) | > 30 µM (inactive) | > 30 µM (inactive) | COc1c(OCCCN2CCOCC2)ccc2c1N=C(NC(=O)c1cnc(N)nc1)N1CCN=C21 [COPANLISIB] |
| > 30 µM (inactive) | > 30 µM (inactive) | > 30 µM (inactive) | > 30 µM (inactive) | > 30 µM (inactive) | > 30 µM (inactive) | > 30 µM (inactive) | COCC(=O)NC/C=C/c1ccc2ncnc(Nc3ccc(Oc4ccc(C)nc4)c(C)c3)c2c1 [CP-724714] |
| > 30 µM (inactive) | > 30 µM (inactive) | > 30 µM (inactive) | > 30 µM (inactive) | > 30 µM (inactive) | > 30 µM (inactive) | > 30 µM (inactive) | C#Cc1cccc(Nc2ncnc3cc(OC)c(OCCCCCCC(=O)NO)cc23)c1 [CUDC-101] |
| > 30 µM (inactive) | > 30 µM (inactive) | > 30 µM (inactive) | > 30 µM (inactive) | 1.06 µM (active) | > 30 µM (inactive) | 0.078 µM (active) | CCS(=O)(=O)N1CCN(c2ccc(Nc3ncc(C(N)=O)c(NC4CC4)n3)cc2)CC1 [Cerdulatinib Hydrochloride] |
| > 30 µM (inactive) | > 30 µM (inactive) | > 30 µM (inactive) | > 30 µM (inactive) | > 30 µM (inactive) | > 30 µM (inactive) | > 30 µM (inactive) | Cc1cccc(-c2nn3c(c2-c2ccnc4ccc(C(N)=O)cc24)CCC3)n1 [GALUNISERTIB] |
| > 30 µM (inactive) | > 30 µM (inactive) | > 30 µM (inactive) | > 30 µM (inactive) | > 30 µM (inactive) | > 30 µM (inactive) | > 30 µM (inactive) | COc1ccc(S(=O)(=O)N(C(C)=O)c2ccccc2/C=C/c2cc[n+]([O-])cc2)cc1 [HMN-214] |
| > 30 µM (inactive) | > 30 µM (inactive) | > 30 µM (inactive) | > 30 µM (inactive) | > 30 µM (inactive) | > 30 µM (inactive) | > 30 µM (inactive) | CNC(=O)c1cccc2cc(Oc3ccnc4cc(OCC5(N)CC5)c(OC)cc34)ccc12 [LUCITANIB] |
| > 30 µM (inactive) | > 30 µM (inactive) | > 30 µM (inactive) | > 30 µM (inactive) | > 30 µM (inactive) | > 30 µM (inactive) | > 30 µM (inactive) | Cn1cc(-c2cnc3ccc4ccc(CS(=O)(=O)NCc5ccccn5)cc4c(=O)c3c2)cn1 [MK-8033] |
| > 30 µM (inactive) | > 30 µM (inactive) | > 30 µM (inactive) | > 30 µM (inactive) | > 30 µM (inactive) | > 30 µM (inactive) | > 30 µM (inactive) | FC(F)(F)c1ccc(/C=C/c2nc(COc3ccc(CCCCn4ccnn4)cc3)co2)cc1 [MUBRITINIB] |
| > 30 µM (inactive) | 30 µM (active) | > 30 µM (inactive) | > 30 µM (inactive) | 0.268 µM (active) | > 30 µM (inactive) | > 30 µM (inactive) | Cc1nc(Nc2n[nH]c3c2CN(C(=O)N[C@H](CN(C)C)c2ccccc2)C3(C)C)c2sccc2n1 [PF-03758309] |
| > 30 µM (inactive) | > 30 µM (inactive) | > 30 µM (inactive) | > 30 µM (inactive) | > 30 µM (inactive) | > 30 µM (inactive) | > 30 µM (inactive) | Cc1cnc(NC(=O)Nc2cc(Br)c(C)cc2OC[C@@H]2CNCCO2)cn1 [RABUSERTIB] |

| Structure (SMILES) | Kd [1] | Kd [2] | Kd [3] | Kd [4] | Kd [5] | Kd [6] | Kd [7] |
| --- | --- | --- | --- | --- | --- | --- | --- |
| NC(=O)Nc1cc(-c2cccc(F)c2)sc1C(=O)N[C@H]1CCCNC1 [AZD-7762] | > 30 µM (inactive) | > 30 µM (inactive) | > 30 µM (inactive) | > 30 µM (inactive) | 2.14 µM (active) | > 30 µM (inactive) | > 30 µM (inactive) |
| CC(C)(C)c1nc(-c2cccc(NS(=O)(=O)c3c(F)cccc3F)c2F)c(-c2ccnc(N)n2)s1 [DABRAFENIB] | > 30 µM (inactive) | > 30 µM (inactive) | > 30 µM (inactive) | > 30 µM (inactive) | 0.12 µM (active) | > 30 µM (inactive) | > 30 µM (inactive) |
| O=C(Nc1cc(C(F)(F)F)cc(C(F)(F)F)c1)c1cc(Cl)ccc1O [IMD-0354] | > 30 µM (inactive) | > 30 µM (inactive) | > 30 µM (inactive) | > 30 µM (inactive) | > 30 µM (inactive) | > 30 µM (inactive) | > 30 µM (inactive) |
| CCOc1cc2ncc(C#N)c(Nc3ccc(F)c(Cl)c3)c2cc1NC(=O)/C=C/CN(C)C [PELITINIB] | > 30 µM (inactive) | > 30 µM (inactive) | > 30 µM (inactive) | > 30 µM (inactive) | > 30 µM (inactive) | > 30 µM (inactive) | > 30 µM (inactive) |
